Experimental data as given in patent US20240166612A1, “ARYLTHIOETHER ACETAMIDE AND RELATED COMPOUNDS AND THEIR USE IN TREATING MEDICAL CONDITIONS” (X-Biotix Therapeutics, Inc., priority 2021, published 2024).
In brackets after ≈: the same amount, converted by molar mass.

Assays:
[1] = biological target: T1, recombinant LpxA enzyme (P. aeruginosa) (Pseudomonas aeruginosa, UniProt Q9X6P4); assay: LpxA in vitro substrate acylation assay with RapidFire MS analysis (P. aeruginosa); format: biochemical; conditions: P. aeruginosa enzyme 0.5 nM, PaACP-C10, 30 min
T1 sequence (Q9X6P4 1-258): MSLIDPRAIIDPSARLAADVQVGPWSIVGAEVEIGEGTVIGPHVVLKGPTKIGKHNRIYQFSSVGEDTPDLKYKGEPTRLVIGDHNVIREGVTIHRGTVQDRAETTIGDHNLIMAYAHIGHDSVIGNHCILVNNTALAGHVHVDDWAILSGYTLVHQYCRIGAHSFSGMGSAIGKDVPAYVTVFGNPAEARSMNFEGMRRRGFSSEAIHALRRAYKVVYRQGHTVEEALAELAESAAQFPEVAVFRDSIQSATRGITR

[2] = biological target: recombinant LpxA enzyme (E. coli) (Escherichia coli, UniProt P0A722); assay: LpxA in vitro substrate acylation assay with RapidFire MS analysis (E. coli); format: biochemical
Sequence of recombinant LpxA enzyme (E. coli) (P0A722 whole entry): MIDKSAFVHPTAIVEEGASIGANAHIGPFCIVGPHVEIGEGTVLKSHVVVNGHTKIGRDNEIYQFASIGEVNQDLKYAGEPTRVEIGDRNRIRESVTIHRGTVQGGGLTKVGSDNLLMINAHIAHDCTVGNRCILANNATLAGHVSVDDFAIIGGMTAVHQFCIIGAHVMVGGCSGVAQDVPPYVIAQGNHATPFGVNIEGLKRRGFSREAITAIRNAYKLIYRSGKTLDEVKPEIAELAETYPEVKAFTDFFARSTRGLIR
Description: Exemplary compounds from the above Examples were tested for ability to inhibit LpxA activity using an in vitro substrate acylation assay with RapidFire™ MS analysis. Assay procedures and results are described below.
Reactions were carried out in a final volume of 30 μL with 25 mM HEPES (pH 7.3), 150 mM NaCl, 2 mM DTT, 0.01% BSA, 5 μM UDP-GlcNac, recombinant LpxA enzyme (0.5 nM P. aeruginosa or 1.0 nM E. coli, both produced at Evotec), 0.5 μM acyl-transfer reagent (decanoyl P. aeruginosa acyl-carrier protein [PaACP-C10] or myristoyl E. coli acyl-carrier protein [EcACP-C1-4], both produced at Evotec), and 1% DMSO containing test compound. After 30 min incubation at room temperature, reactions were stopped by addition of 30 μL of 10% TCA in water.
(§1) Samples were centrifuged (4350 rpm, 4° C., 5 min), and then subjected to RapidFire™ MS analysis on an Agilent RapidFire 300 coupled to an Agilent 6460 triple-quadrupole mass spectrometer. Analytes were retained on a C4 (type A) cartridge using the following solvents and flow rates: • Pump 1—H2O with 5 mM NH4OAc at 2.0 mL/min, • Pump 2—MeOH/H2O (90/10) at 1.5 mL/min, • Pump 3—MeOH/H2O (90/10) at 0.5 mL/min, and • Pump 4—ACN (organic)/H2O (aqueous). Substrate and product of the reaction were detected in negative mode ESI-MS/MS by MRM (multiple reaction monitoring) of transitions 606.0/385.0 (UDP-GlcNAc substrate) and 776.2/385.0 (UDP-3-O—(R-3-hydroxydecanoyl)-GlcNAc product, for P. aeruginosa LpxA assay) or 832.2/385.0 (UDP-3-O—(R-3-hydroxymyristoyl)-GlcNAc product, for E. coli LpxA assay).
For IC50 determinations, peak areas of the substrate and product were compared to compute the proportion of product formed by the LpxA enzyme at each compound concentration.

[3] = system: P. aeruginosa PAO397; assay: Broth microdilution MIC, P. aeruginosa PAO397; format: cell-based; conditions: Pseudomonas aeruginosa, PAO397, 18 h, read-out: PAO397 KO MIC
[4] = biological target: T2, recombinant LpxD enzyme (P. aeruginosa) (Pseudomonas aeruginosa, UniProt Q9HXY6); assay: LpxD in vitro substrate acylation assay with RapidFire MS analysis (P. aeruginosa); format: biochemical; conditions: P. aeruginosa enzyme 10 nM, EcACP-C10, 120 min
T2 sequence (Q9HXY6 1-353): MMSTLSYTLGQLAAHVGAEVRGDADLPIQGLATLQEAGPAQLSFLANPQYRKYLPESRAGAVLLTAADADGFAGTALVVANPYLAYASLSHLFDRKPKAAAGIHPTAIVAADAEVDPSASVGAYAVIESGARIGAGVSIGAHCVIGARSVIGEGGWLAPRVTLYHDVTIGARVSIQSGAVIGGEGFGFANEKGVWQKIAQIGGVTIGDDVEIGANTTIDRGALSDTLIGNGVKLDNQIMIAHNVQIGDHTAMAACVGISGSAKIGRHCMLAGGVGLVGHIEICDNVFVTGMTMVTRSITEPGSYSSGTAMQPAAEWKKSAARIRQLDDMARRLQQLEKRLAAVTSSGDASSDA
Description: Exemplary compounds from the above Examples were tested for ability to inhibit LpxD activity using an in vitro substrate acylation assay with RapidFire™ MS analysis. Assay procedures and results are described below.
Reactions were carried out in a final volume of 30 μL with 25 mM HEPES (pH 7.3), 150 mM NaCl, 2 mM DTT, 0.01% BSA, 5 μM UDP-3-O[R-3-Hydroxymyristoyl]-glucosamine (produced at Charles River according to literature procedures, and partially purified at Evotec), 10 nM recombinant LpxD enzyme (P. aeruginosa or E. coli, produced at Evotec), 1 μM decanoyl E. coli acyl-carrier protein (EcACP-C10, produced at Evotec), and 1% DMSO containing test compound. After 120 min incubation at room temperature, reactions were stopped by addition of 30 μL of 10% TCA in water.
as §1, with “790.3/385.0 (UDP-3-O[R-3-Hydroxymyristoyl]-glucosamine” for “606.0/385.0 (UDP-GlcNAc”, “960.4/385.0 (UDP-3-O—[R-3-Hydroxymyristoyl]-N—[R-3-hydroxydecanoyl]-glucosamine product).” for “776.2/385.0 (UDP-3-O—(R-3-hydroxydecanoyl)-GlcNAc product, for P. aeruginosa LpxA assay) or 832.2/385.0 (UDP-3-O—(R-3-hydroxymyristoyl)-GlcNAc product, for E. coli LpxA assay).”
For IC50 determinations, peak areas of the substrate and product were compared to compute the proportion of product formed by the LpxD enzyme at each compound concentration. The fractional activity was converted to percentage inhibition and plotted against compound concentration in Evotec's proprietary platform Aplus and fit using a four-parameter logistic using non-linear regression to yield the IC50 value.

[5] = system: Wild-type P. aeruginosa PAO1; assay: Broth microdilution MIC, wild-type P. aeruginosa PAO1; format: cell-based; conditions: Pseudomonas aeruginosa; wild-type P. aeruginosa PAO1, 37° C., 18 h; read-out: PAO1 WT MIC
[6] = system: E. coli JW0452-3 (BW25113 JacrA::kan); assay: Broth microdilution MIC, E. coli JW0452-3; format: cell-based; conditions: Escherichia coli, BW25113, 18 h, read-out: E. coli KO MIC
Description: Exemplary compounds from the above Examples were tested to determine their minimum inhibitory concentration (MIC) for exemplary strains of Escherichia and Pseudomonas bacteria using broth microdilution methods. Assay procedures and results are described below.
Broth microdilution assays were conducted according to Clinical and Laboratory Standards Institute guidelines (CLSI, M07-A^11: Clinical and Laboratory Standards Institute. Methods for Dilution Antimicrobial Susceptibility Tests for Bacteria that Grow Aerobically; Approved Standard-11th Edition. Wayne, PA: CLSI, 2018). Briefly, bacterial suspensions were adjusted to a density equivalent to a 0.5 McFarland standard and diluted in sterile, cation-adjusted Mueller-Hinton broth (Beckton Dickinson) to yield a final inoculum between 2×10^5 and 8×10^5 colony-forming units (CFU)/mL. An inoculum volume of 98 μL was added to wells containing 2 μL of 2-fold serial dilutions of drug (prepared in DMSO). All inoculated microdilution trays were incubated in ambient air at 37° C. for 18 h. […] Performance of the assay was monitored by the use of laboratory quality-control strains (S. aureus ATCC 29213 and P. aeruginosa ATCC 27853) and levofloxacin, a compound with a defined MIC spectrum, in accordance with CLSI guidelines (CLSI, M100Ed29: Clinical and Laboratory Standards Institute. Performance Standards for Antimicrobial Susceptibility Testing, 29th Edition. Wayne, PA: CLSI, 2018).
Multiple enterobacteriaceae strains were tested, including both wild-type strains and multi-drug resistance pump deficient mutants. Specific strains tested included the following: • Wild-type P. aeruginosa PAO1, • P. aeruginosa PAO1 ΔmexABoprM—Disabled multi-drug efflux system Δ(MexAB-OprM), • P. aeruginosa PAO397—PAO1Δ(mexAB-oprM) Δ(mexCD-oprJ) Δ(mexEF-oprN) Δ(mexJK) Δ(mexXY) ΔopmH, • P. aeruginosa LESB58—Clinical isolate; colistin-resistant, isolated in the United Kingdom in 1988 from a patient with cystic fibrosis • E. coli JW0452-3 (BW25113 JacrA::kan)—Disabled multi-drug efflux system (AcrAB-TolC). […]

[7] = system: P. aeruginosa PAO1 ΔmexABoprM; assay: Broth microdilution MIC, P. aeruginosa PAO1 ΔmexABoprM; format: cell-based; conditions: Pseudomonas aeruginosa, PAO1, 18 h, read-out: PAO1 KO MIC

SMILES	IC50 [1] [nM]	IC50 [2] [nM]	MIC [3] [µg/mL]	IC50 [4] [nM]	MIC [5] [µg/mL]	MIC [6] [µg/mL]	MIC [7] [µg/mL]
N#Cc1ccc(CN(CC(=O)N2CCOCC2)C(=O)CSc2ccccc2Cl)cc1 [Compound No. 2]	> 1000	> 20000	16 to 64 (≈ 36 to 144 µM)	> 20000	> 64	–	–
CN1CC(NC(=O)CN(Cc2ccc(C#N)cc2)C(=O)CSc2ccccc2Cl)C1 [Compound No. 6]	> 1000	–	1 to 16 (≈ 2.26 to 36.1 µM)	> 20000	> 64	–	–
N#Cc1ccc(CN(Cc2nnc(N)o2)C(=O)CSc2cc(-c3c[nH]cn3)ccc2Cl)c(F)c1 [Compound No. 62, N-[(5-Amino-1,3,4-oxadiazol-2-yl)methyl]-2-[2-chloro-5-(1H-imidazol-4-yl)phenyl]sulfanyl-N-[(4-cyano-2-fluoro-phenyl)methyl]acetamide]	100 to 1000	5000 to 20000	1 to 16 (≈ 2.01 to 32.1 µM)	–	> 64	16 to 64 (≈ 32.1 to 129 µM)	–
N#Cc1ccc(CN(CC(=O)NC2CNC2)C(=O)CSc2ccccc2Cl)cc1 [compound 5]	100 to 1000	–	16 to 64 (≈ 37.3 to 149 µM)	> 20000	> 64	16 to 64 (≈ 37.3 to 149 µM)	–
CS(=O)(=O)Nc1ccc(CN(Cc2nnc(N)o2)C(=O)CSc2ccccc2Cl)cc1 [compound 46]	20 to 100	> 20000	1 to 16 (≈ 2.07 to 33.2 µM)	–	> 64	16 to 64 (≈ 33.2 to 133 µM)	> 64
